This is an account of results in PMC2572567 (Biochemical pharmacology, 2008).

Series [1] concerns heart rate. The note with it: Starling heart-lung preparation of the dog; cited from earlier work.
Series [2] deals with T1, muscarinic receptors in heart (Rattus norvegicus, UniProt P10980).
T1 sequence (P10980 1-466): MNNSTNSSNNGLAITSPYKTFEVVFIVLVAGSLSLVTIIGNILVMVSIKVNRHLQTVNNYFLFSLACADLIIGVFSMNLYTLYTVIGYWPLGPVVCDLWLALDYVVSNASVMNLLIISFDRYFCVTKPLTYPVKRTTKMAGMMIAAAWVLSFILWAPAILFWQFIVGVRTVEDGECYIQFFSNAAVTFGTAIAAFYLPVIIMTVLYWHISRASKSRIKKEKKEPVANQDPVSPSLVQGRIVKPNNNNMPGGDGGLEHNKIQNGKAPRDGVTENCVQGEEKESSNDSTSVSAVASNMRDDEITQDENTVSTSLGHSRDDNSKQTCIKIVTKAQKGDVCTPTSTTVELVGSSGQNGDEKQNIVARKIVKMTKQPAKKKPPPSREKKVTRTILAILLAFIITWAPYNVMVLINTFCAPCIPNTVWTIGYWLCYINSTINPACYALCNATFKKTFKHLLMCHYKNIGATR
Briefly: [3H]oxotremorine-M displacement assay, cardiac membranes. Format: binding. The note with it: for [3H]Oxotremorine-M maximum displacement: 1 nM [3H]OXO, 21°C, 90 min, mean ± S.E.

Series [3] deals with BChE in rat heart (Rattus norvegicus, UniProt Q9JKC1). Briefly: Radiometric cholinesterase assay, BChE activity in cardiac homogenates. The format is biochemical.
Series [4] deals with cardiac muscarinic receptors. The following applies: cited from earlier work.
The test system of series [5] is muscarinic receptors in cortex. Briefly: [3H]oxotremorine-M displacement assay, cortical membranes. The format is binding, rat. The following applies: for [3H]Oxotremorine-M maximum displacement: 1 nM [3H]OXO, 21°C, 90 min, mean ± S.E.
In series [6] the test system is rats. The following applies: aged versus adult rats; cited from earlier work.
Series [7] concerns rats. The following applies: cited from earlier work.
For series [8], the target named is T2, AChE in rat heart (Rattus norvegicus, UniProt P37136).
T2 sequence (P37136 32-614): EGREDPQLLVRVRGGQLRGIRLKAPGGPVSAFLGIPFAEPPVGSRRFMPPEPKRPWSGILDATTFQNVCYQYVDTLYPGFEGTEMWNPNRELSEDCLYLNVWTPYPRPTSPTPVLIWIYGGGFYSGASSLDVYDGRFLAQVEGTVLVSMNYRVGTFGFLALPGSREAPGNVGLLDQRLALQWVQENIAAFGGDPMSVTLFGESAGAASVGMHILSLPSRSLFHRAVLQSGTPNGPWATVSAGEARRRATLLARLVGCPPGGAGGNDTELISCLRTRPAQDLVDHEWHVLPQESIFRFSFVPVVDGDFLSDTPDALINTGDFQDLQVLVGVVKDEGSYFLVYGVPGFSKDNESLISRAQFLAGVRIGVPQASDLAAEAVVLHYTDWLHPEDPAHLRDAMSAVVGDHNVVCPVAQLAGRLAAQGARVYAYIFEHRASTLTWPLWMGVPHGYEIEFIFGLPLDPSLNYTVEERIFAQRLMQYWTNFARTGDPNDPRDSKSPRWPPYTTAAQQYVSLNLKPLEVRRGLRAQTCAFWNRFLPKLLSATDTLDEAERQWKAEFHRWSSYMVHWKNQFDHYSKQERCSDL
Briefly: Radiometric cholinesterase assay, AChE activity in cardiac homogenates. Format: biochemical. The following applies: heart and cortex (Tables 2 and 3).

BChE in rat heart, sequence (Q9JKC1 24-597): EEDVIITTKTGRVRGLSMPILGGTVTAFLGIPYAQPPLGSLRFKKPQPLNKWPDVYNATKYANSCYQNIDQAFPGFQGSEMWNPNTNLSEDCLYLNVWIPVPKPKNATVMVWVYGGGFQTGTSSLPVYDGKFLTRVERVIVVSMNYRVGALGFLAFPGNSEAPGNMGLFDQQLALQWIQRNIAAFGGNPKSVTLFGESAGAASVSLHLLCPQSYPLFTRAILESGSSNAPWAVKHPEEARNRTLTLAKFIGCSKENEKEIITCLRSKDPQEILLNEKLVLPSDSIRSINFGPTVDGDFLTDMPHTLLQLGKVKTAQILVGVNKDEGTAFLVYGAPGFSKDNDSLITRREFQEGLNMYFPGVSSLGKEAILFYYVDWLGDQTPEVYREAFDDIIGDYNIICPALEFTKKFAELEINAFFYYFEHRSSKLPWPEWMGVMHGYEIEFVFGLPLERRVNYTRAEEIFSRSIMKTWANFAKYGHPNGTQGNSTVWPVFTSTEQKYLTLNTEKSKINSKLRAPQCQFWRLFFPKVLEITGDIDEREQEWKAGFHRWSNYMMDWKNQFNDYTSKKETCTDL

As for `C=CC[N+](C)(C)c1ccc(CCC(=O)CCc2ccc([N+](C)(C)CC=C)cc2)cc1.[Br-].[Br-]` [BW 284C51, 1,5-bis (allyldimethylammoniumphenyl) pentane-3-dibromide], the “Effect on heart rate” value in series [1] is “had no effect”.
Consider `CCOP(=O)(OCC)Oc1nc(Cl)c(Cl)cc1Cl` [Chlorpyrifos oxon, O,O′-diethyl-O-3,5,6-trichloro-2-pyridinyl phosphate], for which the “[3H]Oxotremorine-M maximum displacement” value stood at 50 ± 3% in series [2] (adult heart membranes), 39 ± 4% in series [2] (aging heart membranes), 51 ± 2% in series [5] (adult cortex membranes) and 49 ± 3% in series [5] (aging cortex membranes). Further, in series [3] (heart and cortex, both age groups), the “Sensitivity of BChE relative to AChE to inhibition in vitro” value is recorded as 3.5–12 times. Moreover, in series [4], the “Nature of interaction with cardiac muscarinic receptors ([3H]OXO binding sites)” value is listed as “irreversible”.
With `CCOP(=S)(OCC)Oc1nc(Cl)c(Cl)cc1Cl` [Chlorpyrifos, O,O′-diethyl-O-3,5,6-trichloro-2-pyridinyl phosphorothioate], the “Sensitivity of aged rats to acute toxicity relative to adults” value in series [6] is given as “similar”. In addition, the “Displacement of [3H]OXO radioligand binding (in words)” value is “did not displace” in series [2] (heart, adult and aging rats, 30 pM-3 μM); “did not displace” in series [5] (cortex, adult and aging rats, 30 pM-3 μM). Moreover, the “oral LD50” value in series [7] is “about 100 mg/kg”.
As to `COP(=O)(OC)Oc1ccc([N+](=O)[O-])cc1` [Methyl paraoxon, O,O′-dimethyl-p-nitrophenyl-phosphate], the “[3H]Oxotremorine-M maximum displacement” value turned out to be 37 ± 3% in series [2] (adult heart membranes), 29 ± 3% in series [2] (aging heart membranes), 33 ± 2% in series [5] (adult cortex membranes) and 36 ± 2% in series [5] (aging cortex membranes). Besides, in series [8], the “Sensitivity of AChE relative to BChE to inhibition” value is recorded as ~ 2 fold. In addition, the “[3H]OXO displacement IC50 in aging cortex, fold higher than adult cortex” value in series [5] (aging versus adult cortex) was ~ 10 fold.
For the compound `COP(=S)(OC)Oc1ccc([N+](=O)[O-])cc1` [Methyl parathion, O,O′-dimethyl-p-nitrophenyl-phosphorothioate], the “[3H]Oxotremorine-M maximum displacement” value in series [2] (adult heart membranes) is listed as 31 ± 3%; in series [2] (aging heart membranes), 26 ± 2%; in series [5] (adult cortex membranes), 22 ± 3%; in series [5] (aging cortex membranes), 20 ± 3%. For the same compound, in series [4], the “Nature of interaction with cardiac muscarinic receptors ([3H]OXO binding sites)” value is “reversibly”. Moreover, the “oral LD50” value in series [7] was “about 20 mg/kg”.
`CC(C)NP(=O)(NC(C)C)OP(=O)(NC(C)C)NC(C)C` [iso-OMPA, tetraisopropylpyrophosphoramide]: in series [3], inhibition was half-maximal at 200 nM (IC50). Also, in series [3] (adult and aging, heart versus cortex), the “IC50 against BChE in heart, fold lower than in cortex” value was ~ 10 fold.
On to `CCOP(=S)(OCC)Oc1ccc([N+](=O)[O-])cc1` [parathion], for which, in series [6], the “Sensitivity of aged rats to acute toxicity relative to adults” value is reported as 3 fold.
